Each compound was assayed against human recombinant KAT-II (Homo sapiens (Human), UniProt Q8N5Z0) (assay: KAT-II inhibitory test). Conditions: 3.0 μmol/L kynurenine, 37° C., 1 hr, pH 8.0; kynurenic acid quantified by HPLC.
Type: biochemical
Method: The compounds described in the above-mentioned Examples were used for the KAT-II inhibitory test.
Preparation of Human Recombinant KAT-II
Human recombinant KAT-II was prepared as follows.
His tag and maltose binding protein tag were added to the N-terminal of a gene encoding human KAT-II (Genbank accession number: AF481738.1), and the obtained gene was incorporated into pET32 (Merck Nihon Millipore), which is an Escherichia coli expression vector. Human recombinant KAT-II produced by BL21(DE3) Escherichia coli (Merck Nihon Millipore, 69450) transformed using the plasmid was purified using an amylose resin column (New England Biolabs, #800-21 L).
The inhibitory action of the test compound on human recombinant KAT-II was determined by the following method.
To a reaction mixture (45 μL) containing 3.0 μmol/L kynurenine, 10 μmol/L pyridoxal phosphate, 2.0 ng/μL human recombinant KAT-II, and 150 mmol/L tris(hydroxymethyl)aminomethane-acetate buffer (pH 8.0) was added a 10% dimethyl sulfoxide solution (5 μL) of each test compound prepared, and the mixture was reacted at 37° C. for 1 hr. After the reaction, 50% trichloroacetic acid (5 μL) was added to terminate the reaction.
The resultant kynurenic acid was quantified as follows by high performance liquid chromatography. An enzyme reaction mixture was separated by an octadecylsilane reversed-phase column (SC-50DS, Eicom Corporation; mobile phase: 250 mmol/L zinc acetate, 50 mmol/L sodium acetate, and 5.0% acetonitrile (pH 6.2)) incubated at 30° C., and kynurenic acid was quantified using a fluorescence detector (RF-20Axs, Shimadzu Corporation) at excitation wavelength 354 nm, detection wavelength 460 nm. The analytical curve was drawn every time by an external standard method. Each test compound was tested by dual measurement at each concentration.

human recombinant KAT-II, sequence (Q8N5Z0 30-425): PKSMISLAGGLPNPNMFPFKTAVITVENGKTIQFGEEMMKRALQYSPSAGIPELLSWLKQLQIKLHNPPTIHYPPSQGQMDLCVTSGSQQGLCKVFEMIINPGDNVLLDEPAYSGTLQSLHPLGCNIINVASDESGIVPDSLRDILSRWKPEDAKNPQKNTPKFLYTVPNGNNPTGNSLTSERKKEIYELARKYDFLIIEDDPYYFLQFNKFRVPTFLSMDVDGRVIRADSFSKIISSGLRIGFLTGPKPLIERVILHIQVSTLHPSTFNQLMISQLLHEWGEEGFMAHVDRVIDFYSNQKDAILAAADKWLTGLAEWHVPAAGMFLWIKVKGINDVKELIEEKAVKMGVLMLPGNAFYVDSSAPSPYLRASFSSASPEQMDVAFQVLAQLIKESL

| SMILES | IC50 |
| --- | --- |
| CC(C)c1cc(=O)n2nc([C@H]3CCCN3C(=O)COc3ccccc3)sc2n1 [Example 145, 2-[(R)-1-(2-phenoxyacetyl)pyrrolidin-2-yl]-7-(propan-2-yl)-5H-[1,3,4]thiadiazolo[3,2-a]pyrimidin-5-one] | 1500 nM |
| O=C(NCc1ccccc1)[C@H]1CCCN1c1nn2c(=O)cc(C(F)(F)F)nc2s1 [Example 642, (R)-N-benzyl-1-(5-oxo-7-trifluoromethyl-5H-[1,3,4]thiadiazolo[3,2-a]pyrimidin-2-yl)pyrrolidine-2-carboxamide] | 78 nM |
| CC(C)c1cc(=O)n2nc([C@H]3CCCN3C(=O)Cc3ccc(F)cc3)sc2n1 [Example 143, 2-{(R)-1-[2-(4-fluorophenyl)acetyl]pyrrolidin-2-yl}-7-(propan-2-yl)-5H-[1,3,4]thiadiazolo[3,2-a]pyrimidin-5-one] | 2200 nM |
| Cc1nc2sc(N3CCC[C@@H]3C(=O)NCc3ccccc3)nn2c(=O)c1C1=CCOCC1 [Example 698, (R)-N-benzyl-1-[6-(3,6-dihydro-2H-pyran-4-yl)-7-methyl-5-oxo-5H-[1,3,4]thiadiazolo[3,2-a]pyrimidin-2-yl]pyrrolidine-2-carboxamide] | 67 nM |
| CCc1c(Cl)c(=O)n2nc(N3CCC[C@@H]3C(=O)NCc3ccccc3)sc2c1Cl [Example 701, (R)-N-benzyl-1-(6,8-dichloro-7-ethyl-5-oxo-5H-[1,3,4]thiadiazolo[3,2-a]pyridin-2-yl)pyrrolidine-2-carboxamide] | 50 nM |
| Cc1noc(-c2nc3sc([C@H]4CCCN4C(=O)Oc4ccccc4)nc3c(=O)[nH]2)n1 [Example 120, (R)-2-[5-(3-methyl-[1,2,4]oxadiazol-5-yl)-7-oxo-6,7-dihydro[1,3]thiazolo[5,4-d]pyrimidin-2-yl]pyrrolidine-1-carboxylic acid phenyl ester] | 4.7 nM |
| Cn1c(CN2Cc3ccccc3C2)nc2sc(N3CCC[C@@H]3C(=O)NCc3ccccc3)nc2c1=O [Example 328, (R)-N-benzyl-1-{5-[(1,3-dihydro-2H-isoindol-2-yl)methyl]-6-methyl-7-oxo-6,7-dihydro[1,3]thiazolo[5,4-d]pyrimidin-2-yl}pyrrolidine-2-carboxamide] | 17 nM |
| Cc1nc2sc([C@H]3CCCN3C(=O)Oc3ccccc3)nc2c(=O)n1C1CCOCC1 [Example 32, (R)-2-[5-methyl-7-oxo-6-(tetrahydro-2H-pyran-4-yl)-6,7-dihydro[1,3]thiazolo[5,4-d]pyrimidin-2-yl]pyrrolidine-1-carboxylic acid phenyl ester] | 400 nM |
| O=C(NCc1ccccc1)[C@H]1CCCN1c1nc2c(=O)[nH]c(-c3ccccc3F)c(Cl)c2s1 [Example 624, (R)-N-benzyl-1-[7-chloro-6-(2-fluorophenyl)-4-oxo-4,5-dihydro[1,3]thiazolo[4,5-c]pyridin-2-yl]pyrrolidine-2-carboxamide] | 15 nM |
| CCc1nc2sc(N3CCC[C@@H]3C(=O)NCc3ccccc3Cl)nn2c(=O)c1F [Example 678, (R)-N-(2-chlorobenzyl)-1-(7-ethyl-6-fluoro-5-oxo-5H-[1,3,4]thiadiazolo[3,2-a]pyrimidin-2-yl)pyrrolidine-2-carboxamide] | 19 nM |
| O=C(NCc1ccccc1)[C@H]1CCCN1c1nc2c(=O)[nH]c(C(F)(F)c3ccccc3)nc2s1 [Example 524, (R)-N-benzyl-1-{5-[difluoro(phenyl)methyl]-7-oxo-6,7-dihydro[1,3]thiazolo[5,4-d]pyrimidin-2-yl}pyrrolidine-2-carboxamide] | 4 nM |
| O=C(NCc1ccccc1)[C@H]1CCCN1c1ccc2nc(C3(Cl)CC3)[nH]c(=O)c2n1 [Example 711, (R)-N-benzyl-1-[2-(1-chlorocyclopropyl)-4-oxo-3,4-dihydropyrido[3,2-d]pyrimidin-6-yl]pyrrolidine-2-carboxamide] | 190 nM |
| CC(C)c1nc2ccc(N3CCC[C@@H]3C(=O)NCc3ccccc3)nn2c(=O)c1F [Example 722, (R)-N-benzyl-1-[3-fluoro-4-oxo-2-(propan-2-yl)-4H-pyrimido[1,2-b]pyridazin-7-yl]pyrrolidine-2-carboxamide] | 89 nM |
| Cc1nc2sc(N3CCC[C@@H]3C(=O)NCc3ccccc3)nn2c(=O)c1C(C)C [Example 647, (R)-N-benzyl-1-[7-methyl-5-oxo-6-(propan-2-yl)-5H-[1,3,4]thiadiazolo[3,2-a]pyrimidin-2-yl]pyrrolidine-2-carboxamide] | 58 nM |
| CN(C)c1nc2sc([C@H]3CCCN3C(=O)Oc3ccccc3)nc2c(=O)[nH]1 [Example 106, (R)-2-[5-(N,N-dimethylamino)-7-oxo-6,7-dihydro[1,3]thiazolo[5,4-d]pyrimidin-2-yl]pyrrolidine-1-carboxylic acid phenyl ester] | 69 nM |
| CCc1nn(C2CCOCC2)c(=O)c2nc(N3CCC[C@@H]3C(=O)NCc3ccccc3)sc12 [Example 613, (R)-N-benzyl-1-[7-ethyl-4-oxo-5-(tetrahydro-2H-pyran-4-yl)-4,5-dihydro[1,3]thiazolo[4,5-d]pyridazin-2-yl]pyrrolidine-2-carboxamide] | 22 nM |

Results, then the compound that gave them:

| IC50 | SMILES |
| --- | --- |
| 11 nM | O=C(NCc1ccccc1)[C@H]1CCCN1c1nc2c(=O)n(C3CCOCC3)c(C(F)(F)F)nc2s1 [Example 244, (R)-N-benzyl-1-[7-oxo-6-(tetrahydro-2H-pyran-4-yl)-5-trifluoromethyl-6,7-dihydro-[1,3]thiazolo[5,4-d]pyrimidin-2-yl]pyrrolidine-2-carboxamide] |
| 43 nM | COc1ccc(Cn2c(C(C)(C)F)nc3sc(N4CCC[C@@H]4C(=O)NCc4ccccc4)nc3c2=O)c(OC)c1 [Example 414, (R)-N-benzyl-1-[6-(2,4-dimethoxybenzyl)-5-(2-fluoropropan-2-yl)-7-oxo-6,7-dihydro[1,3]thiazolo[5,4-d]pyrimidin-2-yl]pyrrolidine-2-carboxamide] |
| 27 nM | Cn1c(C(F)F)nc2sc(N3CCC[C@@H]3C(=O)NCc3ccccc3)nc2c1=O [Example 281, (R)-N-benzyl-1-(5-difluoromethyl-6-methyl-7-oxo-6,7-dihydro-[1,3]thiazolo[5,4-d]pyrimidin-2-yl)pyrrolidine-2-carboxamide] |
| 39 nM | CN(C)CCn1c(C(F)(F)F)nc2sc(N3CCC[C@@H]3C(=O)NCc3ccccc3)nc2c1=O [Example 372, (R)-N-benzyl-1-{6-[2-(N′,N′-dimethylamino)ethyl]-7-oxo-5-trifluoromethyl-6,7-dihydro[1,3]thiazolo[5,4-d]pyrimidin-2-yl}pyrrolidine-2-carboxamide] |
| 8.8 nM | Cn1c(C2(F)CC2)nc2sc(N3CCC[C@@H]3C(=O)NCc3ccccc3)nc2c1=O [Example 268, (R)-N-benzyl-1-[5-(1-fluorocyclopropyl)-6-methyl-7-oxo-6,7-dihydro[1,3]thiazolo[5,4-d]pyrimidin-2-yl]pyrrolidine-2-carboxamide] |
| 150 nM | CN1CCC(Cn2c(C(F)(F)F)nc3sc(N4CCC[C@@H]4C(=O)NCc4ccccc4)nc3c2=O)CC1 [Example 366, (R)-N-benzyl-1-{6-[(1-methylpiperidin-4-yl)methyl]-7-oxo-5-trifluoromethyl-6,7-dihydro[1,3]thiazolo[5,4-d]pyrimidin-2-yl}pyrrolidine-2-carboxamide] |
| 15 nM | CC(=O)c1nc2sc(N3CCC[C@@H]3C(=O)NCc3ccccc3)nc2c(=O)n1C [Example 411, (R)-1-(5-acetyl-6-methyl-7-oxo-6,7-dihydro[1,3]thiazolo[5,4-d]pyrimidin-2-yl)-N-benzylpyrrolidine-2-carboxamide] |
| 240 nM | CCc1nc2sc(N3CCCC[C@@H]3C(=O)NCc3ccccc3)nc2c(=O)n1CC [Example 236, (R)-N-benzyl-1-(5,6-diethyl-7-oxo-6,7-dihydro-[1,3]thiazolo[5,4-d]pyrimidin-2-yl)piperidine-2-carboxamide] |
| 21 nM | CCn1c(C(F)F)nc2sc(N3CCC[C@@H]3C(=O)NCc3ccc4c(c3)OCO4)nc2c1=O [Example 304, (R)-N-[(benzo[1,3]dioxo-5-yl)methyl]-1-(5-difluoromethyl-6-ethyl-7-oxo-6,7-dihydro-[1,3]thiazolo[5,4-d]pyrimidin-2-yl)pyrrolidine-2-carboxamide] |
| 26 nM | Cn1c(-c2ncccc2F)nc2sc(N3CCC[C@@H]3C(=O)NCc3ccccc3)nc2c1=O [Example 298, (R)-N-benzyl-1-[5-(3-fluoropyridin-2-yl)-6-methyl-7-oxo-6,7-dihydro-[1,3]thiazolo[5,4-d]pyrimidin-2-yl]pyrrolidine-2-carboxamide] |
| 340 nM | CCn1c(C(F)F)nc2sc(N3CCC[C@@H]3C(=O)NCc3cc(C)on3)nc2c1=O [Example 311, (R)-1-(5-difluoromethyl-6-ethyl-7-oxo-6,7-dihydro-[1,3]thiazolo[5,4-d]pyrimidin-2-yl)-N-[(5-methyl-isoxazol-3-yl)methyl]pyrrolidine-2-carboxamide] |
| 31 nM | COCCn1c(C(F)F)nc2sc(N3CCC[C@@H]3C(=O)NCc3ccccc3)nc2c1=O [Example 191, (R)-N-benzyl-1-[5-difluoromethyl-6-(2-methoxy-ethyl)-7-oxo-6,7-dihydro-[1,3]thiazolo[5,4-d]pyrimidin-2-yl]pyrrolidine-2-carboxamide] |
